# Test results: patent publication US9950005B2, “Compositions comprising biomembrane sealing agent for treatment of neuronal injury, and methods of use” (WARSAW ORTHOPEDIC, INC., priority 2006, dated 2018)
# Key:
# Assay type in all cases: in vivo, rat
# [1] = tested on: carrageenan-induced hind paw acute inflammation; experiment: Carrageenan hind paw acute inflammation model, mechanical allodynia (up-down method); conditions: Example 7, 24 h after carrageenan
# Experimental: Animals were treated with saline (0.5% final), indomethacin, PEG, magnesium or combined PEG+magnesium solutions. Each animal received 2 injections, the first one 1 hour following carrageenan injection and the second injection 6 hours later. The total dose of PEG and magnesium chloride administered was of 2 and 0.135 g/kg (body weight) respectively. There were 10 animals per group.
# Indomethacin (Fluka, cat. 57413, lot 450544/1) was dissolved in 25% hydroxyl-propyl beta cyclodextrin (hpBCD) by gentle heating and stirring. The PEG solution was composed of PEG3350 at 30% in 0.5% saline, the magnesium solution was composed of magnesium chloride at 2% and the combined PEG+magnesium solution was composed of 30% PEG3350+2% Magnesium Chloride (custom made by AAIPharma Developmental Services, Wilmington, N.C.). […]
# Twenty-four hours following carrageenan injection into the left paw, the same paw was tested for mechanical allodynia. Baseline and post-treatment values for non-noxious mechanical sensitivity were evaluated using 8 Semmes-Weinstein filaments (Stoelting, Wood Dale, Ill., USA) with varying stiffness (0.4, 0.7, 1.2, 2.0, 3.6, 5.5, 8.5, and 15 g) according to the up-down method (Chaplan et al., 1994). […]
# To evaluate the significance of difference between experimental groups, data were analyzed using an unpaired, two-tailed t statistical test with confidence intervals of 95%.
# [2] = tested on: controlled cortical impact model of brain injury; experiment: Morris Water Maze test of cognitive function after controlled cortical impact TBI
# Text: Male Sprague-Dawley rats (Harlan Sprague-Dawley, Indianapolis, Ind.), weighing 350-450 grams each were given free access to food and water before the experiment. The animals were anesthetized with halothane (1% in 70%/30% […] by mask).
# The controlled cortical impact model of brain injury utilized in this study has been described in detail (Scheff and Sullivan, 1999). Animals were anesthetized with isoflorane and placed in a stereotaxic frame in the […] position. A 6 mm craniotomy located approximately midway between bregma and lambda, just above the somatosensory cortex, was made using a Michele trephine. The skull disk was then removed without disturbing the underlying dura mater. The exposed brain was injured using an electronically controlled piston (5 mm diameter, 65 kdynes). The animals in the “sham” group underwent identical surgical procedures, but the surface of the brain was not impacted.
# Following surgery, animals were placed in their home cage and dosing was initiated. Animals were treated with saline (Group 1: sham, Group 2: injured), PEG (Group 3: injured), magnesium (Group 4: injured) or a combination of PEG and magnesium solutions (Group 5: injured). The PEG solution was composed of PEG3350 at 30% in 0.5% saline (custom made by AAIPharma Developmental Services, Wilmington, N.C.). […] The magnesium solution was diluted in saline 1:1 before intravenous injection as recommended by the manufacturer. In the cases of combined PEG+Mg combined treatments, animal received the PEG and magnesium components from two individual solutions.
# The first two injections were administered 15 minutes following injury. Another round of two injections was given 6 hours later. […] The compounds tested were administered by bolus intravenous injection. There were 10 animals per group.
# This behavioral endpoint measure the ability of the rat to learn a new task based on the memorization of spatial cues. […]. […]
# To evaluate the significance of difference between experimental groups, data were analyzed using an unpaired, two-tailed t statistical test with confidence intervals of 95%. […]
# [3] = tested on: spinal cord contusion (T10, pneumatic impactor); experiment: Spinal cord lesion volume after spinal cord contusion (dural impact); conditions: Example 4, total PEG 2 g/kg, magnesium sulfate 0.12 g/kg i.v., PEG change not statistically significant
# Text: Sprague-Dawley female rats (200-225 gm) received a spinal cord contusion using the Precision Scientific Inc pneumatic impactor. Prior to surgery, rats were assigned to different treatment groups based on a randomized block design so that on any given surgery day all treatments would be included. […] The vertebral column was stabilized with angled clamps on the upper thoracic (T8) and lumbar (T11) levels and the impactor with a tip diameter of 2 mm was delivered at approximately 50 kd onto the exposed, intact dura overlying the dorsal spinal cord. The impactor was immediately removed, the wound irrigated with saline, and the muscle and skin openings sutured together. Female animals were used due to the paralysis associated with the injury and ease of voiding the bladder.
# At the end of the study, the spinal cords were extracted and fixed in 4% paraformaldehyde. […] Tissue sparing was determined by computed image analysis be from 10 evenly spaced sections through the injured T10 segment. […]
# [4] = tested on: controlled clip-compression injury at T4; experiment: Neuropathic pain (mechanical allodynia, Semmes-Weinstein monofilament) after SCI; conditions: Example 6; mechanical allodynia up to 3 weeks post-injury
# Experimental: Animals were prepared as described in Example 3. Animals were tested for the development of neuropathic pain before and up to 3 weeks post-injury. Neuropathic pain occurrence and severity was evaluated by the response of the animal to a stimulus that is normally not painful or allodynia. […] The monofilament was applied 10 times for 3 seconds, with each stimulus being separated by a 5 second interval, and the number of avoidance responses out of a possible 10 were recorded. Avoidance responses were defined as flinching, escape, vocalization, or abnormal aggressive behaviors. The scoring system used to monitor mechanical allodynia has been presented in details in Gris et al., 2004. Mechanical allodynia testing was conducted twice per week and the 2 tests were averaged for each animal and reported as a weekly pain score. To evaluate the significance of difference between experimental groups, data were analyzed using an unpaired, two-tailed t statistical test with confidence intervals of 95%. The Welch's modification was also used to analyze the motor recovery to take in account the significant variability in the control group.
structure (smiles),measurement,setting,value
COc1ccc2c(c1)c(CC(=O)O)c(C)n2C(=O)c1ccc(Cl)cc1 [Indomethacin],mean pain score (mechanical allodynia),"[1]; carrageenan-saline 3.4+/−0.5, sham 12.7+/−1.1, higher is better",5.6+/−0.9
"O=S(=O)([O-])[O-].[Mg+2] [Mg, magnesium sulfate]",effect on cognitive functions following TBI,"[2]; Example 1, i.v. 15 min and 6 h post-injury, total PEG 1.4 g/kg, magnesium sulfate 0.230 mmol/kg, Morris Water Maze day 9-14",no effect
same,reduction of the lesion volume relative to control group (SCI-Saline),[3],33%
same,effect on the development of neuropathic pain after SCI,[4],no significant effect
[Cl-].[Cl-].[Mg+2] [magnesium chloride],effect on the pain score relative to animals treated with saline,"[1]; total PEG 2 g/kg, magnesium chloride 0.135 g/kg",no significant effect
same,effect on cognitive recovery after TBI,"[2]; Example 2, total 1.4 g/kg PEG, 0.230 mmol/kg magnesium chloride, 2 injections 15 min and 6 h post-TBI",no significant effect
same,effect on the loss of cognitive functions following brain injury,[2]; summary statement in description,no effect
